Measured values from patent US20230088528A1, “USE OF LIPID IN PREPARATION OF NUCLEIC ACID DELIVERY REAGENT AND RELATED PRODUCT THEREOF” (INSTITUTE OF BASIC MEDICAL SCIENCES CHINESE ACADEMY OF …, priority 2019, published 2023).
Structures can show the parent of a compound that is named as a salt.

Experiment: In vivo delivery of lipid-nucleic acid mixture (PGY-sRNA-26) by gavage, relative intake in blood and tissues by RT-qPCR
Design: species or system C57BL/6 male mice
Settings: for oral delivery of sRNA single-chain nucleic acid into the blood, and lung, kidney, spleen, heart, and intestinal tissue of mice / oral delivery of sRNA single-chain nucleic acid into the blood, and lung, kidney, spleen, and heart tissues of mice: 100 μg lipid:1 nmol PGY-sRNA-26 per mouse, 12 hrs after gavage, vs free intake group; for number of organs into which nucleic acid is significantly delivered: among the 6 organs in the experiments
Protocol: The concentration of a lipid solution in chloroform was 10 mg/ml (stock solution), and grouping was performed according to the lipid compound number.
1 nmol of small RNA (as shown in Table 2) was dissolved in 400 μl of DEPC-treated water in a glass tube, and 10 μl of a corresponding lipid stock solution was added, to give a system containing 100 μg of lipid. The system was well mixed, heated for 15 min in a water bath at 90° C., and then naturally cooled, to obtain a lipid-nucleic acid mixture of the lipid and small RNA.
The C57BL/6 male mice used in the experiment were purchased from Beijing Vital River Laboratory Animal Technology Co., Ltd., about 6 weeks old, and weighed 20-24 g. They were kept in an SPF animal room of the Animal Center of the Institute of Basic Medical Sciences, Chinese Academy of Medical Sciences. The mice were fasted for 12 hrs before gavage.
The lipid-nucleic acid mixture was prepared following the method as described in Example 2. The prepared lipid-nucleic acid mixture was orally administered at a dose of 100 μg lipid:1 nmol single-stranded small RNA PGY-sRNA-26 per mouse.
1) Blank group: Mice (n=4) were given 500 μl of normal saline by gavage, and this group served as a blank control group;
2) Free intake group: Mice (n=4) were given sRNA solution (1 nmol/animal, 500 μl) by direct gavage, and this group served as a negative control group;
3) Lipid treatment group: Mice (n=4) were given 500 μl of the lipid-nucleic acid mixture prepared in step 2 by gavage.
12 hrs after gavage in each group of mice, 500 μl of blood was taken from the eyeball, and 1.5 ml of Trizol Reagent LS (purchased from Invitrogen) was added and mixed well for lysis. The tissue sample was added with 3 ml of Trizol Reagent LS. and homogenized for full lysis, wherein the tissue sample included lung/kidney/spleen/heart/gut. 1 ml of blood or tissue lysate was taken and RNA was extracted according to the following steps.
The blood or tissue lysate was centrifuged at 4° C., and 12,000 rpm for 5 min, the pellet was discarded, and Trizol was transferred to a new centrifuge tube.
Chloroform was added in an amount of 200 μL chloroform/mL Trizol, shaken fully until uniform, and allowed to stand at room temperature for 5 min.
The sample was centrifuged at 4° C., and 12,000 rpm, for 15 min.
The upper aqueous phase was pipetted to another centrifuge tube, and isopropanol was added in an amount of 0.4 mL isopropanol/mL Trizol, mixed well, and allowed to stand at a low temperature for 10-20 min.
The sample was centrifuged at 4° C., and 12,000 rpm, for 15 min, the supernatant was discarded, and the RNA pellet was at the bottom of the tube.
1 mL of 75% ethanol was added, and the centrifuge tube was shaken gently, to suspend the pellet.
The sample was centrifuged at 4° C., and 12,000 rpm, for 10 min, the supernatant was discarded, 1 mL of 75% ethanol was added, and the centrifuge tube was shaken gently, to suspend the pellet.
The sample was centrifuged at 4° C., and 12,000 rpm, for 10 min, the supernatant was discarded, and the sample was air dried at room temperature. The RNA sample was dissolved in 50-100 μL of RNase-free H2O, and the RNA concentration was quantified by determining the OD value.
The sRNA was reversely transcribed into cDNA using a reverse transcription kit (High-Capacity cDNA Reverse Transcription Kits, Applied Biosystems, cat. no. 4368813), following the stem-loop method (see, for example Real-time quantification of microRNAs by stem-loop RT-PCR, Nucleic Acids Res. 2005 Nov. 27; 33(20):e179, incorporated herein by reference). System for reverse transcription: template RNA (200 ng/μL) 10 μL, 10×RT buffer 2.0 μL, 25×dNTP Mix (100 mM) 0.8 μL, U6 RT stem-loop primer 2.0 μL, PGY-sRNA-26 RT stem-loop primer 2.0 μL, MultiScribe™ reverse transcriptase 1.0 μL, RNAase inhibitor 1.0 μL, and nuclease-free water H2O 1.2 μL. […]

[1] = significant difference compared to the control, 100 μg lipid:1 nmol PGY-sRNA-26, 12 hrs

Compound: CCCCCCCCC/C=C/[C@@H](O)[C@@H](N)CO [Lipid 99, D-erythro-sphingosine (C14 group)]
- oral delivery of sRNA single-chain nucleic acid into the blood, and lung, kidney, spleen, heart, and intestinal tissue of mice: can effectively orally deliver
- oral delivery of sRNA single-stranded nucleic acid into the spleen tissue of mice [1]: can significantly efficiently orally deliver

Compound: CCCCCCCC/C=C\CCCCCCCC(=O)OC[C@H](COP(=O)([O-])OCC[N+](C)(C)C)OC(=O)CCCCCCC/C=C\CCCCCCCC [Lipid 117, 1,2-bis-(9Z-octadecenoyl)-sn-glycero-3-phosphocholine]
- oral delivery of sRNA single-chain nucleic acid into the blood, and lung, kidney, spleen, heart, and intestinal tissue of mice: can effectively orally deliver

Compound: CCCCCCCC/C=C\CCCCCCCC(=O)OCC(O)COP(=O)(O)OCCN (stereo not shown) [Lipid 116, 1-(9Z-octadecenoyl)-sn-glycero-3-phosphoethanolamine]
- oral delivery of sRNA single-chain nucleic acid into the blood, and lung, kidney, spleen, heart, and intestinal tissue of mice: can effectively orally deliver

Compound: 1-palmitoyl-2-oleoyl-sn-glycero-3-phospho-(1′-rac-glycerol) (sodium salt) [Lipid 88]
- oral delivery of sRNA single-chain nucleic acid into the blood, and lung, kidney, spleen, heart, and intestinal tissue of mice: can effectively orally deliver
- oral delivery of sRNA single-stranded nucleic acid into the kidney tissue of mice [1]: can significantly efficiently orally deliver

Compound: N-stearoyl-D-erythro-sphingosylphosphocholine [Lipid 104]
- oral delivery of sRNA single-chain nucleic acid into the blood, and lung, kidney, spleen, heart, and intestinal tissue of mice: can effectively orally deliver
- oral delivery of sRNA single-stranded nucleic acid into the blood of mice [1]: can significantly efficiently orally deliver

Compound: CCCCCCCC/C=C\CCCCCCCC(=O)OC[C@H](COP(=O)([O-])OCC(O)CO)OC(=O)CCCCCCC/C=C\CCCCCCCC.[Na+] (stereo partly shown) [Lipid 81, 1,2-dioleoyl-sn-glycero-3-phosphatidylglycerol sodium salt]
- oral delivery of sRNA single-chain nucleic acid into the blood, and lung, kidney, spleen, and heart tissues of mice: can effectively orally deliver
- oral delivery of sRNA single-stranded nucleic acid into the spleen tissue of mice [1]: can significantly efficiently orally deliver

Compound: CCCCCCCC/C=C\CCCCCCCC(=O)O[C@H](COC(=O)CCCCCCCCCCCCCCC)COP(=O)([O-])OCC[N+](C)(C)C [Lipid 86, 1-palmitoyl-2-oleoyl-sn-glycero-3-phosphocholine]
- oral delivery of sRNA single-chain nucleic acid into the blood, and lung, kidney, spleen, heart, and intestinal tissue of mice: can effectively orally deliver

Compound: 1,2-myristin-3-palmitin [Lipid 80]
- oral delivery of sRNA single-chain nucleic acid into the blood, and lung, kidney, spleen, and heart tissues of mice: can effectively orally deliver
- number of organs into which nucleic acid is significantly delivered: two organs
- oral delivery of sRNA single-stranded nucleic acid into the heart tissue of mice [1]: can significantly efficiently orally deliver
- oral delivery of sRNA single-stranded nucleic acid into the spleen tissue of mice [1]: can significantly efficiently orally deliver

Compound: CCCCCCCC/C=C\CCCCCCCC(=O)OC[C@H](COP(=O)(O)OCCN)OC(=O)CCCCCCC/C=C\CCCCCCCC [Lipid 72, 1,2-dioleoyl-sn-glycero-3-phosphatidylethanolamine]
- oral delivery of sRNA single-chain nucleic acid into the blood, and lung, kidney, spleen, and heart tissues of mice: can effectively orally deliver
- oral delivery of sRNA single-stranded nucleic acid into the lung tissue of mice [1]: can significantly efficiently orally deliver

Compound: CCCCC/C=C\C/C=C\CCCCCCCC(=O)OC[C@H](COP(=O)([O-])OCC[N+](C)(C)C)OC(=O)CCCCCCC/C=C\C/C=C\CCCCC [Lipid 107, 1,2-dilinoleoyl-sn-glycero-3-phosphocholine]
- oral delivery of sRNA single-chain nucleic acid into the blood, and lung, kidney, spleen, heart, and intestinal tissue of mice: can effectively orally deliver

Compound: 1,3-palmitin-2-myristin [Lipid 76]
- oral delivery of sRNA single-chain nucleic acid into the blood, and lung, kidney, spleen, and heart tissues of mice: can effectively orally deliver
- number of organs into which nucleic acid is significantly delivered: two organs
- oral delivery of sRNA single-stranded nucleic acid into the lung tissue of mice [1]: can significantly efficiently orally deliver
- oral delivery of sRNA single-stranded nucleic acid into the spleen tissue of mice [1]: can significantly efficiently orally deliver

Compound: CCCCCCCCCCCCCCCCCC(=O)OCC(O)COC(=O)CCCCCCCCCCCCCCC (stereo not shown) [Lipid 111, 1-palmitin-3-stearin]
- oral delivery of sRNA single-chain nucleic acid into the blood, and lung, kidney, spleen, heart, and intestinal tissue of mice: can effectively orally deliver

Compound: CCCCCCCCCCCCCCCCCCCC(=O)OCC(COC(=O)CCCCCCCCCCCCCCCCCCC)OC(=O)CCCCCCCCCCCCCCCCCCC [Lipid 112, Trieicosanoin]
- oral delivery of sRNA single-chain nucleic acid into the blood, and lung, kidney, spleen, heart, and intestinal tissue of mice: can effectively orally deliver

Compound: COC1=C(OC)C(=O)C(C/C=C(\C)CC/C=C(\C)CC/C=C(\C)CC/C=C(\C)CC/C=C(\C)CC/C=C(\C)CC/C=C(\C)CC/C=C(\C)CC/C=C(\C)CCC=C(C)C)=C(C)C1=O [Lipid 82, Q-10, Ubiquinone 50, Ubiquinone 10]
- oral delivery of sRNA single-chain nucleic acid into the blood, and lung, kidney, spleen, heart, and intestinal tissue of mice: can effectively orally deliver

Compound: CCCCCCCCCCCCC/C=C/[C@@H](O)[C@@H](N)CO [Lipid 98, D-erythro-sphingosine]
- oral delivery of sRNA single-chain nucleic acid into the blood, and lung, kidney, spleen, heart, and intestinal tissue of mice: can effectively orally deliver
- overall nucleic acid delivery performance among the lipids (across the 6 organs in the experiments): most significant delivery performance
- oral delivery of sRNA single-stranded nucleic acid into the kidney tissue of mice [1]: can significantly efficiently orally deliver
- oral delivery of sRNA single-stranded nucleic acid into the lung tissue of mice [1]: can significantly efficiently orally deliver
- oral delivery of sRNA single-stranded nucleic acid into the spleen tissue of mice [1]: can significantly efficiently orally deliver

Compound: CCCCCCCCC=CCCCCCCCC(=O)OCC(COC(=O)CCCCCCCCCCCCCCCCCCC)OC(=O)CCCCCCCC=CCCCCCCCC (stereo not shown) [Lipid 78, 1,2-olein-3-arachidin]
- oral delivery of sRNA single-chain nucleic acid into the blood, and lung, kidney, spleen, and heart tissues of mice: can effectively orally deliver

Compound: N-palmitoleoyl-D-erythro-sphingosylphosphocholine [Lipid 103]
- oral delivery of sRNA single-chain nucleic acid into the blood, and lung, kidney, spleen, heart, and intestinal tissue of mice: can effectively orally deliver
- oral delivery of sRNA single-stranded nucleic acid into the lung tissue of mice [1]: can significantly efficiently orally deliver

Compound: 1,2-stearin-3-olein [Lipid 77]
- oral delivery of sRNA single-chain nucleic acid into the blood, and lung, kidney, spleen, and heart tissues of mice: can effectively orally deliver
- oral delivery of sRNA single-stranded nucleic acid into the spleen tissue of mice [1]: can significantly efficiently orally deliver

Compound: CCCCCCCCCCCCCCCC(=O)OC[C@H](COP(=O)(O)O[C@H]1C(O)C(O)C(O)[C@@H](O)C1O)OC(=O)CCCCCCCCCCCCCCC (stereo partly shown) [Lipid 109, 1,2-dipalmitoyl-sn-glycero-3-phospho-(l′-myo-inositol) (ammonium salt)]
- oral delivery of sRNA single-chain nucleic acid into the blood, and lung, kidney, spleen, heart, and intestinal tissue of mice: can effectively orally deliver

Compound: CCCCCCCCCCCCCCCC(=O)OCC(COP(=O)([O-])OCC[N+](C)(C)C)OC(=O)CCCCCCCCCCCCCCC (stereo not shown) [Lipid 119, 1,2-dihexadecanoyl-sn-glycero-3-phosphocholine]
- oral delivery of sRNA single-chain nucleic acid into the blood, and lung, kidney, spleen, heart, and intestinal tissue of mice: can effectively orally deliver

Compound: CCCCCCCCCCCCCCCCC/C=C/[C@@H](O)[C@@H](N)CO [Lipid 97, D-erythro-sphingosine (C22 group)]
- oral delivery of sRNA single-chain nucleic acid into the blood, and lung, kidney, spleen, heart, and intestinal tissue of mice: can effectively orally deliver
- number of organs into which nucleic acid is significantly delivered: two organs
- oral delivery of sRNA single-stranded nucleic acid into the kidney tissue of mice [1]: can significantly efficiently orally deliver
- oral delivery of sRNA single-stranded nucleic acid into the lung tissue of mice [1]: can significantly efficiently orally deliver

Compound: N-palmitoyl-D-erythro-sphingosylphosphocholine [Lipid 105]
- oral delivery of sRNA single-chain nucleic acid into the blood, and lung, kidney, spleen, heart, and intestinal tissue of mice: can effectively orally deliver
- oral delivery of sRNA single-stranded nucleic acid into the blood of mice [1]: can significantly efficiently orally deliver
